Source: patent US20190314318A1, “SUPPRESSION AND PREVENTION OF TUMORS AND TREATMENT OF VIRUSES” (priority 2018, published 2019)

Key:
[1] = in vivo; cited from earlier work
[2] = Additional benefits observed in people taking betaine; assay type: in vivo, human
Source text: Betaine is known to improve cardiovascular health, and can benefit people with fatty deposits in the liver. […] After only a few weeks of taking the betaine, cholesterol levels are reduced and the ability to lose weight is improved.

[3] = after only a few weeks of taking the betaine

C[N+](C)(C)CC(=O)[O-] [betaine, trimethylglycine]
serious side effects [1]: no known serious side effects | tendency to be light headed on getting up after prolonged squatting or kneeling ([2]; a few doses of betaine at about one and a half to about three grams per day, especially older people): considerably lessened | ability to lose weight [2, 3]: improved | cholesterol levels [2, 3]: reduced
